Measurements taken from ChEMBL document CHEMBL3085683, “Quinones bearing non-steroidal anti-inflammatory fragments as multitarget ligands for Alzheimer's disease” (Bioorg Med Chem Lett, 2013).
The source made the active and inactive calls. The rule behind the calls is not given here.

Experiments:
[1] = target: T1, Amyloid-beta precursor protein (Homo sapiens, UniProt P05067); experiment: Inhibition of amyloid beta (1 to 42) aggregation (unknown origin) at 10 uM by thioflavin T fluorescence method
Cholinesterase [2] = target: T2, Cholinesterase (Homo sapiens, UniProt P06276)
Description: Inhibition of human recombinant BuChE by Ellman's assay

Cholinesterase [3] = target: T2, Cholinesterase; experiment: Inhibition of human recombinant BuChE hydrolyzing activity at 67 uM by Ellman's assay
[4] = target: Beta-secretase 1 (Homo sapiens) (UniProt P56817); experiment: Inhibition of human recombinant BACE1 using M-2420 as a substrate at 3 uM […]
Homo sapiens [5] = species on record: Homo sapiens; experiment: Selectivity ratio of IC50 for human recombinant BuChE to IC50 for human recombinant AChE
Cholinesterase [6] = target: T2, Cholinesterase; experiment: Inhibition of human recombinant BuChE at 67 uM by Ellman's assay
Acetylcholinesterase [7] = target: T3, Acetylcholinesterase (Homo sapiens, UniProt P22303); experiment: Inhibition of human recombinant AChE by Ellman's assay
[8] = target: T1, Amyloid-beta precursor protein
Description: Inhibition of amyloid beta (1 to 42) aggregation (unknown origin) by thioflavin T fluorescence method

Acetylcholinesterase [9] = target: T3, Acetylcholinesterase; experiment: Inhibition of human recombinant AChE at 67 uM by Ellman's assay
Gallus gallus [10] = species on record: Gallus gallus; experiment: Reduction in amyloid beta40 secretion in embryonic chicken primary telencephalon neurons; assay type: functional
[11] = Cytotoxicity against embryonic chicken primary telencephalon neurons at 25 to 50 uM; parameters: species or system Gallus gallus
HEK293 = experiment: Cytotoxicity against HEK293 cells assessed as reduction in cell viability up to 10 uM by MTT assay; assay type: cell-based; conditions: human
Gallus gallus [12] = species on record: Gallus gallus; experiment: Reduction in amyloid beta38 secretion in embryonic chicken primary telencephalon neurons; assay type: functional
Gallus gallus [13] = species on record: Gallus gallus; experiment: Reduction in amyloid beta42 secretion in embryonic chicken primary telencephalon neurons; assay type: functional
Homo sapiens [14] = species on record: Homo sapiens; experiment: Selectivity ratio of IC50 for human recombinant AChE to IC50 for human recombinant BuChE

Chain of Beta-secretase 1 (Homo sapiens) (P56817 whole entry): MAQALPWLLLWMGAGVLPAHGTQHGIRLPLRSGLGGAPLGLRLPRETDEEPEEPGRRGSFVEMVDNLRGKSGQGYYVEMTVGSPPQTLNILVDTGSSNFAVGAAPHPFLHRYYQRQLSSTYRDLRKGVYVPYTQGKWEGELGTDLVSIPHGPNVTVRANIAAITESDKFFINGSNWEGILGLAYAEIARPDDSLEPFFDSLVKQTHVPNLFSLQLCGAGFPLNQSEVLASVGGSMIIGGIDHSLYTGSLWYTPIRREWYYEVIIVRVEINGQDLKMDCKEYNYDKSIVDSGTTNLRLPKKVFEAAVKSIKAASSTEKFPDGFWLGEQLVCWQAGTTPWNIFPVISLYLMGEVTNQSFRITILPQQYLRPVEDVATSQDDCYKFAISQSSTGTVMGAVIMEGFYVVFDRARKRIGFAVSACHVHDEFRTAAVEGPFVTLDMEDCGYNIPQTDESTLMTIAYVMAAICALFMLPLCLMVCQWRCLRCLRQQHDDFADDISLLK
T2 sequence (P06276 whole entry): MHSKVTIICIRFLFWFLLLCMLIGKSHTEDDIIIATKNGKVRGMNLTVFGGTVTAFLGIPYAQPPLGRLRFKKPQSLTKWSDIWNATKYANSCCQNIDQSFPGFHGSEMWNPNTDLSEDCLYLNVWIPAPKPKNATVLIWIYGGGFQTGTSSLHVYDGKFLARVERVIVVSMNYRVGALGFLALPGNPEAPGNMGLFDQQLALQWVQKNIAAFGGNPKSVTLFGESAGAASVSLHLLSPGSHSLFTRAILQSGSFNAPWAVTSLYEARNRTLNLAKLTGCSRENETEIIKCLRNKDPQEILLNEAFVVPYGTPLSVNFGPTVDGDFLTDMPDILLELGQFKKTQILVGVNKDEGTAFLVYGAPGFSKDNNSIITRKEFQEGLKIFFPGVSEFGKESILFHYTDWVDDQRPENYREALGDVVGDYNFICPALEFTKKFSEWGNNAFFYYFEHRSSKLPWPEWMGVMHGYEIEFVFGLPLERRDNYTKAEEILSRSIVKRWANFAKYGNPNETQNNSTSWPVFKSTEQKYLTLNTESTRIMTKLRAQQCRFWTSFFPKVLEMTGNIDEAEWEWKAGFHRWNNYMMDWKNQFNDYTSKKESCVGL
T1 sequence (P05067 whole entry): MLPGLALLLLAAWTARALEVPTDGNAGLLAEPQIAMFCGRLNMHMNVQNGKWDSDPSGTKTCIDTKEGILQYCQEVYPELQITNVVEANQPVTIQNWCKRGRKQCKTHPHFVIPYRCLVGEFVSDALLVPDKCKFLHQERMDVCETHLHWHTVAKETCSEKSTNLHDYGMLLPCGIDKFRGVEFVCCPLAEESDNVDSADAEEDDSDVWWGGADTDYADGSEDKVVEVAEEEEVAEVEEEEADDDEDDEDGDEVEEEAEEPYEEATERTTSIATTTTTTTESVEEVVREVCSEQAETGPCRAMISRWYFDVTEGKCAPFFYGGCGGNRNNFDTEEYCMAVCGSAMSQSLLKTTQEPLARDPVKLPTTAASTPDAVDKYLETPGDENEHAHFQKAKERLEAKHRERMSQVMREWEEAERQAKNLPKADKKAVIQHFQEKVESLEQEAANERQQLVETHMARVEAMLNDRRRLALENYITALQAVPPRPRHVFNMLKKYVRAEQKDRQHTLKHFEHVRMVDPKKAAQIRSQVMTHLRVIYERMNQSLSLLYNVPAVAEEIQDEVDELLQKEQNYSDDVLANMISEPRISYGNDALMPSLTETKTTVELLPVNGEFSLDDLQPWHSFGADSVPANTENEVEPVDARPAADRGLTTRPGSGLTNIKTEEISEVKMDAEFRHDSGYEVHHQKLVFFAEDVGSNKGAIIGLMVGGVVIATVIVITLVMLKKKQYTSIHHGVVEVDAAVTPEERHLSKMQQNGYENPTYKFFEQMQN
T3 sequence (P22303 whole entry): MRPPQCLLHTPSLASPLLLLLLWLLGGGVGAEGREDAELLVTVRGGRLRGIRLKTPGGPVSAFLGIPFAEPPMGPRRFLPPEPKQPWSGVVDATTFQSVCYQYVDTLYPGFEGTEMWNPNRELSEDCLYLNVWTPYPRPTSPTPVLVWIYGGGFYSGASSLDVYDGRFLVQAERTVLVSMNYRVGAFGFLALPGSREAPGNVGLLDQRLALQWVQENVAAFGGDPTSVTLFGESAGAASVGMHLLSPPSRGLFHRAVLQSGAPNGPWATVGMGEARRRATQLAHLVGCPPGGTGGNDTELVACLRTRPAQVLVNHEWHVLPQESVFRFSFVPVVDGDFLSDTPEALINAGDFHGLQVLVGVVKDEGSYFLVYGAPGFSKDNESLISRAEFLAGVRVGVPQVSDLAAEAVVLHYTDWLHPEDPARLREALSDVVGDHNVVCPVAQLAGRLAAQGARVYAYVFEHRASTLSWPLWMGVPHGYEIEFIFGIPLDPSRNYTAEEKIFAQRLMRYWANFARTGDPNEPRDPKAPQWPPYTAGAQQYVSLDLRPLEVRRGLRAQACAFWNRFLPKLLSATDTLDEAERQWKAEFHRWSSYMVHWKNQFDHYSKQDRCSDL

SMILES | inhibition [1] | IC50 (Cholinesterase [2]) | inhibition (Cholinesterase [3]) | inhibition [4] | Ratio IC50 (Homo sapiens [5]) | inhibition (Cholinesterase [6]) | IC50 (Acetylcholinesterase [7]) | IC50 [8] | inhibition (Acetylcholinesterase [9]) | Activity (Gallus gallus [10]) | Activity [11] | Activity (HEK293) | Activity (Gallus gallus [12]) | Activity (Gallus gallus [13]) | Ratio IC50 (Homo sapiens [14])
CC(C)Cc1ccc(C(C)C(=O)NCCCNCCCNC2=CC(=O)C(NCCCNCCCNC(=O)C(C)c3ccc(CC(C)C)cc3)=CC2=O)cc1 (stereo not drawn) | 82.6% | 22.5 µM | 70% | 20% | 37.5 | < 10% | 0.6 µM | 4.83 µM | 26.3% |  |  |  |  |  | 
COc1ccc2c(c1)c(CC(=O)NCCCNCCCNC1=CC(=O)C(NCCCNCCCNC(=O)Cc3c(C)n(C(=O)c4ccc(Cl)cc4)c4ccc(OC)cc34)=CC1=O)c(C)n2C(=O)c1ccc(Cl)cc1 | 80.1% | 18.7 µM |  | 20% |  |  | 10.3 µM | 6.11 µM |  |  |  |  |  |  | 
CC1=C(CC(=O)NCCCNCCCNC2=CC(=O)C(NCCCNCCCNC(=O)CC3=C(C)/C(=C\c4ccc([S+](C)[O-])cc4)c4ccc(F)cc43)=CC2=O)c2cc(F)ccc2/C1=C/c1ccc([S+](C)[O-])cc1 (stereo not drawn) | 55% | 14.7 µM |  | 20% |  |  | 9.54 µM | 8.18 µM |  |  |  |  |  |  | 
CC(C(=O)NCCCNC1=CC(=O)C(NCCCNC(=O)C(C)c2ccc(-c3ccccc3)c(F)c2)=CC1=O)c1ccc(-c2ccccc2)c(F)c1 (stereo not drawn) | 12.7% | 116 µM |  | 20% |  |  | > 20 µM |  |  |  |  |  |  |  | 
CC(C(=O)NCCCNCCCNC1=CC(=O)c2ccccc2C1=O)c1ccc(-c2ccccc2)c(F)c1 (stereo not drawn) | 76.4% | 16.4 µM |  | 20% |  |  | 107 µM | 6.88 µM |  | Active | Toxic | Non-toxic | Active | Active | 
CC(C(=O)NCCCNCCCNC1=CC(=O)C(NCCCNCCCNC(=O)C(C)c2ccc(-c3ccccc3)c(F)c2)=CC1=O)c1ccc(-c2ccccc2)c(F)c1 (racemic) | > 90% |  |  | 20% |  |  |  |  |  |  |  |  |  |  | 
CCN(CCCCCCNC1=CC(=O)C(NCCCCCCN(CC)Cc2ccccc2OC)=CC1=O)Cc1ccccc1OC [MEMOQUIN] |  |  |  |  |  |  |  | 5.93 µM |  |  |  |  |  |  | 
CC(C(=O)NCCCCCCNC1=CC(=O)C(NCCCCCCNC(=O)C(C)c2ccc(-c3ccccc3)c(F)c2)=CC1=O)c1ccc(-c2ccccc2)c(F)c1 (stereo not drawn) |  | > 20 µM |  | 20% |  |  | > 20 µM |  |  |  |  |  |  |  | 
C[C@H](C(=O)NCCCNCCCNC1=CC(=O)C(NCCCNCCCNC(=O)[C@@H](C)c2ccc(-c3ccccc3)c(F)c2)=CC1=O)c1ccc(-c2ccccc2)c(F)c1 | > 90% | 7.77 µM |  | 20% |  |  | 2.89 µM | 4.43 µM |  |  |  | Toxic |  |  | 
C[C@@H](C(=O)NCCCNCCCNC1=CC(=O)C(NCCCNCCCNC(=O)[C@H](C)c2ccc(-c3ccccc3)c(F)c2)=CC1=O)c1ccc(-c2ccccc2)c(F)c1 | 87.2% | 9.98 µM |  | 20% |  |  | 27.8 µM | 4.77 µM |  |  |  | Non-toxic |  |  | 
O=C(Cc1ccccc1Nc1c(Cl)cccc1Cl)NCCCNCCCNC1=CC(=O)C(NCCCNCCCNC(=O)Cc2ccccc2Nc2c(Cl)cccc2Cl)=CC1=O | 74.9% | 0.36 µM |  | 20% |  |  | 15.4 µM | 3.15 µM |  |  |  | Non-toxic |  |  | 42.8
